Columns and labels:
[1] = test system: MT4 cells infected with HIV; experiment: Analysis of HIV integration using real-time PCR; assay type: cell-based; conditions: for 2LTR-circles (DNA copies) / Integration Alu-PCR (integrated DNA copies): DNA analyzed 16 h after infection, relative to control; for Conclusion (step of replication cycle inhibited): from Alu-PCR and 2LTR-circles
Procedure: Analysis of HIV Integration Using Real-Time PCR
Next to the detection of integrated DNA (proviral DNA), the production of 2LTR-circles formed by circularisation of unintegrated DNA was monitored. Specific inhibition of the integration of viral DNA into the genome was typically associated with accumulation of 2LTR-circles in the nucleus. MT4 cells were infected with HIV at high MOI by centrifugation for 60 min at 1200 g. After infection cells were incubated in the presence of compound in 24-well plates (10^6 c/well) for 16 h, and DNA was extracted using the QiaAmp DNA mini kit (Qiagen).
After normalization, 2LTR-circles and integrated DNA were quantified by real-time PCR using the appropriate primers and probe (cfr. reference Butler et al.). Reactions were analysed using the ABI Prism 5700 sequence detection system (Applied Biosystems).
DNA was analyzed for integration (Alu-PCR) and 2LTR-circles, 16 h after infection. DNA was also analyzed for viral cDNA synthesis, 4 h after infection.

[2] = molecular target: T1, Recombinant His-tagged HIV-1 integrase (Human immunodeficiency virus type 1 group M subtype B, UniProt P12497, C1427S/F1332K); experiment: Enzymatic integrase assay (oligonucleotide-based DNA strand transfer, ELISA); assay type: biochemical
T1 construct: Recombinant His-tagged HIV-1 integrase; His; made in house; host or cells: E. coli BL21(DE3)
Procedure: Enzymatic Integrase Assay
The activity of HIV-integrase was determined using an oligonucleotide-based assay in which the DNA strand transfer by preformed complexes of integrase and processed DNA was measured by means of an enzyme-linked immunosorbent assay (ELISA) in microtiter plate format. Recombinant His-tagged HIV-1 integrase was produced in the E. coli strain BL21(DE3) from the plasmid pINSD.His.sol (available from NTH) after induction with isopropyl-β-D-thiogalactopyranoside (IPTG) according to described procedures (cfr. ref. Jenkins et al., “A soluble active mutant of HIV-1 integrase”, J. Biol. Chem. 271 ([…]), 7712-7718). HPLC-purified oligodeoxynucleotides were obtained from Proligo, and used for preparation of the viral DNA substrate and target DNA.
INb-1C is 5′-biotinylated, INT5 and INT6 are at the 3′-end labeled with FITC. INb-1C and IN-1NC correspond to the U5 end of the HIV-1 LTR. The DNA substrate for the integrase reactions was made by annealing INb-1C and IN-1NC. An equimolar mixture of INb-1C and IN-1NC was heated shortly at 95° C. in the presence of 100 mM NaCl and allowed to cool slowly to room temperature. In the same way, INT5 and INT6 were annealed to produce a target DNA molecule.
The integration strand transfer reactions were performed in the following way:
20 nM biotinylated DNA substrate INb-1C/IN-1NC was pre-incubated with 300 nM HIV-integrase at 37° C. for 5 min, to allow the cleavage reaction to occur. The candidate compounds and 50 nM target DNA INT5/INT6 were added to the reaction mix containing 20 mM Hepes pH 7.5, 25 mM NaCl, 5 mM MnCl2, 2 mM DTT, and 50 μg/ml BSA, and incubated for 2 h at 37° C. The reaction mix was transferred to streptavidin-coated plates (Exiqon), which were prewashed (three times) with 5×SSCT, and incubated for 1 h at room temperature to allow capture of the biotinylated viral DNA/target DNA complex. Plates were washed three times with 2×SSCT buffer, and anti-FITC POD-coupled antibody (Roche) was added and incubated for 1 h at room temperature to detect integrated FITC-labeled target DNA. After a final washing step with PBST (5 times), BM chemiluminescent POD-substrate (Roche) was added, and luminescence was read out.
The table below list the pIC50 values for those compounds tested in the enzymatic integrase assay. The pIC50 is expressed in Molar units and is the value according to the following formula: pIC50=−log IC50
wherein the IC50 value is the drug concentration at which 50% of the enzyme or viral activity is inhibited.

Row | Compound | 2LTR-circles (DNA copies) [1] | Integration Alu-PCR (integrated DNA copies) [1] | Conclusion (step of replication cycle inhibited) [1] | IC50 [2] [nM]
1 | O=C1c2c(c(O)c3nccnc3c2O)C(=O)N1Cc1ccc2c(c1)OCO2 [Compound 1, 7-Benzo[1,3]dioxol-5-ylmethyl-5,9-dihydroxy-pyrrolo[3,4-g]quinoxaline-6,8-dione] | +++ (“+++” symbol indicates an increase in the amount of DNA copies > 5 in comparison with the control level) | − | Integrase | 617
2 | O=C1c2c(c(O)c3nccnc3c2O)C(=O)N1Cc1ccc(F)cc1 [Compound 2, 7-(4-Fluoro-benzyl)-5,9-dihydroxy-pyrrolo[3,4-g]quinoxaline-6,8-dione] | +++ (“+++” symbol indicates an increase in the amount of DNA copies > 5 in comparison with the control level) | − | Integrase | 417
3 | C#CCOc1c2c(c(O)c3nccnc13)C(=O)N(Cc1ccc3c(c1)OCO3)C2=O [Compound 36, 7-Benzo[1,3]dioxol-5-ylmethyl-5-hydroxy-9-prop-2-ynyloxy-pyrrolo[3,4-g]quinoxaline-6,8-dione] |  |  |  | 18200
4 | CC(C)CCOc1c2c(c(O)c3nccnc13)C(=O)N(Cc1ccc3c(c1)OCO3)C2=O [Compound 37, 7-Benzo[1,3]dioxol-5-ylmethyl-5-hydroxy-9-(3-methyl-butoxy)-pyrrolo[3,4-g]quinoxaline-6,8-dione] |  |  |  | 1480
5 | O=C1c2c(c(O)c3c(ncn3Cc3ccccc3)c2O)C(=O)N1Cc1ccc2c(c1)OCO2 [Compound 38, 6-Benzo[1,3]dioxol-5-ylmethyl-1-benzyl-4,8-dihydroxy-1H-1,3,6-triaza-s-indacene-5,7-dione] |  |  |  | 479
6 | O=C1c2c(c(O)c3[nH]cnc3c2O)C(=O)N1Cc1ccc2c(c1)OCO2 [Compound 39, 6-Benzo[1,3]dioxol-5-ylmethyl-4,8-dihydroxy-1H-1,3,6-triaza-s-indacene-5,7-dione] |  |  |  | 2040
7 | CC(c1ccccc1)N1C(=O)c2c(c(O)c3c(ncn3Cc3ccccc3)c2O)C1=O (centres unmarked) [Compound 40, 1-Benzyl-4,8-dihydroxy-6-(1-phenyl-ethyl)-1H-1,3,6-triaza-s-indacene-5,7-dione] |  |  |  | 1120
8 | CC(c1ccccc1)N1C(=O)c2c(c(O)c3ccccc3c2O)C1=O (centres unmarked) [Compound 42, 4,9-Dihydroxy-2-(1-phenyl-ethyl)-benzo[f]isoindole-1,3-dione] |  |  |  | > 100000
9 | CC(C)Oc1ccc(Cc2ccccc2)cc1C(=O)CC(=O)C(=O)O [Reference compound, reference compound] | +++ (“+++” symbol indicates an increase in the amount of DNA copies > 5 in comparison with the control level) | − | Integrase | 

Source: US20060211724A1, “Hiv integrase inhibitors” (priority 2003, published 2006)
